{
  "source": "patent US20140296143A1",
  "about": "“Angiotensin-(1-7) As A Chemoprevention Agent” (Wake Forest Innovations, priority 2008, published 2014)",
  "type_in_all_cases": "cell-based, human",
  "key": {"COX-1 mRNA": {"test_system": "COX-1 mRNA", "assay": "COX-1 mRNA in A549 cells", "conditions": "quiescent A549 cells, 100 nM, 2, 4, or 8 h", "method": "(§1) For reverse-transcriptase real-time PCR, RNA was isolated from cells or tissue, using the TRIzol reagent (GIBCO Invitrogen Corp., Carlsbad, Calif.), as directed by the manufacturer. The RNA concentration and integrity were assessed using an Agilent 2100 Bioanalyzer with an RNA 6000 nano LabChip (Agilent Technologies, Palo Alto, Calif.). Approximately 1 μg of total RNA was reverse transcribed using avian myeloblastosis virus reverse transcriptase (RT) in a 20 μL mixture containing deoxyribonucleotides, random hexamers and RNase inhibitor in RT buffer. Heating the RT reaction product at 95° C. terminated the reaction. For real-time polymerase chain reaction (PCR), 2 μL of the resultant cDNA was added to TaqMan Universal PCR Master Mix (Applied Biosystems, Foster City, Calif.) with a gene-specific primer/probe set (Applied Biosystems, Foster City, Calif.) and amplification was performed on an ABI 7000 Sequence Detection System. The mixtures were heated at 50° C. for 2 min, at 95° C. for 10 min followed by 40 cycles at 95° C. for 15 sec and 60° C. for 1 min. […] The results were quantified as Ct values, where Ct is defined as the threshold cycle of PCR at which amplified product is first detected, and expressed as the ratio of target/control (Relative Gene Expression)."}, "VEGF mRNA": {"test_system": "VEGF mRNA", "assay": "VEGF mRNA in A549 cells by RT-PCR", "conditions": "100 nM, 2-4 hours", "method": "RNA, isolated from cells or tissue, using the TRIzol reagent (GIBCO Invitrogen, Carlsbad, Calif.), was subjected to reverse transcriptase/real-time polymerase chain reaction as previously described (Tallant et al., Am. J. Physiol. Heart Circ. Physiol., 2005, 289:1560-1566). All reactions were performed in triplicate and 18S ribosomal RNA, amplified using the TaqMan Ribosomal RNA Control Kit (Applied Biosystems), served as an internal control. The results were quantified as Ct values, where Ct is defined as the threshold cycle of PCR at which amplified product is first detected, and defined as relative gene expression (the ratio of target/control). […] The RNA concentration was quantified by UV spectroscopy and any degradation assessed by ethidium bromide staining intensity of 28S and 18S ribosomal RNA following agarose gel electrophoresis. […] Following PCR, the amplification products were separated by polyacrylamide gel electrophoresis, visualized by autoradiography, and analyzed using the MCID imaging system.\nFor reverse-transcriptase real-time PCR, RNA was isolated from cells or tissue, using the TRIzol reagent (GIBCO Invitrogen Corp., Carlsbad, Calif.), as directed by the manufacturer. The RNA concentration and integrity were assessed using an Agilent 2100 Bioanalyzer with an RNA 6000 nano LabChip (Agilent Technologies, Palo Alto, Calif.). […]"}, "COX-2": {"test_system": "COX-2", "assay": "COX-2 protein (Western blot) and mRNA (RT real-time PCR) in A549 cells", "method": "as §1, with “System.” for “System. The mixtures were heated at 50° C. for 2 min, at 95° C. for 10 min followed by 40 cycles at 95° C. for 15 sec and 60° C. for 1 min.”\nQuiescent A549 lung cancer cells or tumor tissue cut into approximately 1-2 mm^2 size pieces were homogenized in phosphate-buffered saline (PBS; 50 mM NaPO4, pH=7.2, 100 mM NaCl). […] The protein concentration was measured by a modification of the Lowry method. […]"}, "caspase-8": {"test_system": "caspase-8", "assay": "Caspase-8 activity in A549 cell lysates, fluorometric assay", "conditions": "A549 cells, 100 nM; maximal at 16 and 24 h", "method": "The specificity of the activity of each caspase substrate was also verified by assays in the presence of specific inhibitors. […] Caspase-3 activity was measured by a fluorometric assay using Ac-DEVD-AFC (Acetylated-Asp-Glu-Val-Asp-7-amino-4-trifluoromethylcoumarin) (SEQ ID NO: 9) as a specific substrate for caspase-3 and Z-DEVD-CHO as a selective caspase-3 inhibitor. Caspase-8 activity was measured by a fluorometric assay using Ac-LETD-AFC (Acetylated-Leu-Glu-Thr-Asp-7-amino-4-trifluoromethylcoumarin) (SEQ ID NO: 10) as a specific substrate and Z-LETD-CHO as a selective caspase-8 inhibitor. The data are presented as relative fluorescence units (RFU)."}},
  "data": [
    {"smiles": "CC[C@H](C)[C@H](NC(=O)[C@H](Cc1ccc(O)cc1)NC(=O)[C@@H](NC(=O)[C@H](CCCNC(=N)N)NC(=O)[C@@H](N)CC(=O)O)C(C)C)C(=O)N[C@@H](Cc1c[nH]cn1)C(=O)N1CCC[C@H]1C(=O)O", "note": "[Ang-(1-7), Asp-Arg-Val-Tyr-Ile-His-Pro]", "values": [
      {"measurement": "COX-1 mRNA", "setting": "COX-1 mRNA", "value": "no change"},
      {"measurement": "optimal reduction of VEGF mRNA", "setting": "VEGF mRNA", "value": "greater than 50%"},
      {"measurement": "COX-2 mRNA", "setting": "COX-2; 100 nM, 2, 4 and 8 h", "value": "significant reduction"},
      {"measurement": "COX-2 protein", "setting": "COX-2; 100 nM, 8-h treatment", "value": "marked decrease"},
      {"measurement": "time-dependent increase in caspase-8 activity", "setting": "caspase-8", "value": "about 2 fold"}
    ]}
  ]
}
